Literature values in patent US10857195B2, “Plant extracts for improving sleep” (Kemin Industries, Inc., priority 2014, dated 2020).

System: aging mice
Conditions: RA administered to aging mice

- catalase (CAT) activity in the brain: increased
- superoxide dismutase (SOD) activity in the brain: increased
SMILES: O=C(/C=C/c1ccc(O)c(O)c1)O[C@H](Cc1ccc(O)c(O)c1)C(=O)O [RA, Rosmarinic acid]
- malondialdehyde (MDA) in the brain: decreasing
